Where “and” joins values, the source holds several entries; their conditions need not be identical. Equal values may be shown once. Marks after values point to notes of the source that are not given here.
How the values were obtained:
Format in all cases: in vivo
Tetranychus urticae [1] = experiment: Contact mortality (Leaf Disc Method); conditions: for Mortality (%M): adults, 24 h, Abbott corrected
Method: This bioassay is to evaluate the physical effect of different doses on the mortality of Tetranychus urticae (red spider mite) adults in a short/medium-term (0-24 hours) by topical application.
Tests were conducted in plastic net petri dishes (5 cm diameter) (Figure 2). (a) The bottom of the petri dish was covered with a thin (0.4 mm) layer of agar 12% (w/v). After 2 minutes, to cool agar, (b) bean (Phaseolus vulgaris) leaf discs (2 cm^2) were placed on the fresh agar surface (upper side up) and allowed to dry for 30 minutes. This provides a support and disc hydration along the experiment (24 h). Fifteen (c) Tetranychus urticae adults were placed on the upper surface of a bean leaf disc with a fine entomological brush. The mites were allowed to acclimate for 30 minutes. A total of 10 petri dishes for each treatment (individual active ingredients, blend of active ingredients, positive and negative controls) were used in each experiment and temporarily replicated 3 times along the week.
Each treatment (different doses of individual active ingredients, blend of active ingredients, and controls) was sprayed (50 µl) two times on the settled spider mites, covering all the disc surface in each petri dishes using a micro-atomizer. Closed and labeled bottles were incubated in a compact-type growth chamber at 25 (±2) °C, 60% relative humidity (RH), and a photoperiod of 16 h:8 h light: dark. Numbers of live and dead mite adults were counted at 24 h post-treatment. Mite adults were considered dead if no movement was apparent after probing with the tip of a fine brush under stereoscopic magnifying glass. Mortality percentage was calculated in treatment and control groups. If the mortality in negative control is above 20%, the test was discarded. When control mortality was greater than 5% but less than 20%, the observed mortality (%M) was corrected using Abbott's formula (Abbott, 1925): % Corrected M = (X−Y)/(100−Y)x [formula]
Where: X= Mortality (%) in the treatment; Y= Mortality (%) in the control
Means of %M were compared using a one-way analysis of variance (ANOVA, p<0.05) and LSD-test as a post hoc test to verify significant differences between single treatments using Statgraphics Centurion XVII software. When nonnormality in the data was detected, an additional Kruskal-Wallis test was conducted, and Box-and-Whisker Plot (Median Notch) was presented. Each active ingredient and the blend were tested in a dose-response experiment (3-5 serial dilutions) to calculate their relative potency (EC50 and/or EC90) from a linear regression analysis (%M on Log-dose). In addition, death mite adults were carefully observed under stereoscopic magnifying glass to differentiate the mechanisms of action involved in contact mortality such as: Blocking tracheal insect spiracles (suffocation) and effect on insect cuticle and/or membranes (osmotic shock). Table 4. Contact mortality of test items against Tetranychus urticae

Tetranychus urticae [2] = experiment: In vitro settling inhibition (leaf disc painting method); conditions: 24 h
Method: The objective of this bioassay is to evaluate the effect of different doses of individual active ingredients and biopesticide composition on the settling behavior of Tetranychus urticae. It's based on the preference of mite adults for treated and non-treated bean (Phaseolus vulgaris) plants located in the same petri dishes (in vitro assays) or entomological cages (in planta assays): Tests were conducted in plastic net petri dishes (5cm diameter) (Figure 3). The bottom of the petri dish was covered with a thin (0.4 mm) layer of agar 12% (w/v) (a). After 2 minutes to cool agar, bean (Phaseolus vulgaris) leaf discs (2 cm^2) were placed on the fresh agar surface (upper side up) and allowed to dry for 30 minutes. It provides a support and disc hydration along the experiment (24 h). Half of the discs were treated (T) with 20 µl of the individually active ingredients and the blend and the other half with water containing 2% TWEEN® 80 that was used as control (C). Fifteen Tetranychus urticae adults were placed on the middle of treated and untreated leaf discs and allowed to feed (24 h) in a compact-type growth chamber at 25 (±2) °C, 60% relative humidity, and a photoperiod of 16 h:8 h light: dark. A total of 10 petri dishes for each treatment were used in each experiment and temporarily replicated 3 times along the week. Table 5. In vitro antifeedant effects against Tetranychus urticae Settling inhibition index (%SI) was calculated according to the following formula: %SI = [1−((T)/(C))] × 100 [formula] T= Settling of treated plants; C= Settling of control plants.

Tetranychus urticae [3] = experiment: Knock-down bioassays; conditions: 1% w/v; mortality assessed at 1, 2, 4, 6, 8, 16 and 24 hours after spraying; Figures 7 and 8
Method: Furthermore, the composition of the present invention was tested to evaluate its knock-down effect in the contact mortality assays of individual active ingredients and blend. Mortality, as in bioassay of contact mortality, was assessed at 1, 2, 4, 6, 8, 16 and 24 hours after spraying the blend of Eucalyptus oil and geraniol. In the case of individual active ingredients (Eucalyptus oil and geraniol), we used the dose that give major activity in contact (topical) assays 1% w/v Table 4. Blend was prepared at 0.06:0.06 %w/v (Eucalyptus oil: geraniol) for the bioassays with the biopesticide composition.
The same behavior was stated in the case of biopesticide composition (Figure 9). Abrupt curves showing high mortalities within oner hour are indicative of neurotoxic effects. However, smoothed curves could be used as indicative of non-toxic mode of action.

Tetranychus urticae [4] = experiment: In planta settling inhibition (Whole Plant Direct Method); conditions: 24 hours
Method: The objective of this bioassay is to evaluate the effect of different doses of individual active ingredients and biopesticide composition on the settling behavior of Tetranychus urticae. It's based on the preference of mite adults for treated and non-treated bean (Phaseolus vulgaris) plants located in the same petri dishes (in vitro assays) or entomological cages (in planta assays): The experiments were conducted in bugdorm®-type net cages (60x60x60 cm, 140 microns mesh) (Figure 4). By putting inside this, 14 cm diameter pots with two similar bean plants in two-leaf stage in each pot (Figure 5). One of the plants was sprayed with the composition of the present invention and the other with the control and allowed to dry for 30 minutes. Adult mites (up to 100) were released at the base of stems between the two plants (treated and untreated), so that they had to choose between two alternatives or remain walking and/or resting on the cage walk. A total of 5 cages for each treatment (four plant each) (Figure 6) and control were used in each experiment and replicated 3 times in different days. Closed and labeled cages were incubated in a "walk-in" type growth chamber at 25 (±2) °C, 60% relative humidity (RH), and a photoperiod of 16 h:8 h light: dark. After 24 hours the number of adults settled in treated and non-treated plants and the number of laid eggs were recorded on both side of blade in each leaf. Number of mites and eggs were counted under a stereomicroscope. Settling inhibition index (%SI) was calculated according to the following formula: %SI = [1−((T)/(C))] × 100 [formula] T= Settling of treated plants; C= Settling of control plants. Oviposition inhibition index (%10) was calculated according to the following formula: %IO = [1−((T)/(C))] × 100 [formula] T= laid eggs on treated plants; C= laid eggs on control plants. Means of %SI and %10 were analyzed for significance by the non-parametric Wilcoxon signed-rank test (p<0.05). An asterisk (*) means statistically significancy. Table 6. In planta antifeedant effects against Tetranychus urticae

With `Cc1ccc(C(C)C)cc1O` [Carvacrol] the “Mortality (%M)” value (Tetranychus urticae [1]; Dose 0.01 % (w/v)) was 38.9 ± 5.1%, the “Mortality (%M)” value (Tetranychus urticae [1]; Dose 0.05 % (w/v)) was 47.1 ± 7.2% and the “Mortality (%M)” value (Tetranychus urticae [1]; Dose 0.10 % (w/v)) was 66.8 ± 5.3%. For the same molecule, the “Mortality (%M)” value (Tetranychus urticae [1]; Dose 1.0 % (w/v)) was 100.0 ± 0.0%, the “concentration given 80% of contact mortality” value (Tetranychus urticae [1]; EC80) was 0.55% and the “EC80 (%, w/v)” value (Tetranychus urticae [1]; Table 12, contact mortality, limits in brackets, text calls it EC80) was “EC50 (%, w/v) = 0.55 (0.42, 0.8)”.

With `CC(C)=CCC/C(C)=C/CO` [geraniol] the “Settling inhibition (%SI)” value (Tetranychus urticae [2]; Dose 0.02 % (w/v)) was 31.1 ± 4.4 %, the “Settling inhibition (%SI)” value (Tetranychus urticae [2]; Dose 0.05 % (w/v)) was 47.5 ± 4.6 % and the “Settling inhibition (%SI)” value (Tetranychus urticae [2]; Dose 0.10 % (w/v)) was 70.6%. For the same molecule, the “Settling inhibition (%SI)” value (Tetranychus urticae [2]; Dose 0.10 % (w/v), listed as Geraniol) was 70.6 ± 3.0 %, the “Settling inhibition (%SI)” value (Tetranychus urticae [2]; Dose 0.50 % (w/v)) was 75.3 ± 3.4 % and the “Settling inhibition (%SI)” value (Tetranychus urticae [2]; Dose 1.0 % (w/v)) was 82.9 ± 2.5 %. For the same molecule, the “Knock-down effect (knockdown curve)” value (Tetranychus urticae [3]) was “slow and gradual increase in the mortality along the time”, the “Mortality (%M)” value (Tetranychus urticae [1]; Dose 0.10 % (w/v)) was 18,1% and 18.1 ± 2.4% and 18.1 ± 2.4 ^a % and the “Mortality (%M)” value (Tetranychus urticae [1]; Dose 0.50 % (w/v)) was 28.2% and 28.2 ± 3.2% and 28.2 ± 3.2 ^b %. For the same molecule, the “Mortality (%M)” value (Tetranychus urticae [1]; Dose 1.0 % (w/v)) was 43.9 ± 2.5% and 43.9 ± 2.5 ^c %, the “EC50 (%, w/v)” value (Tetranychus urticae [1]; contact mortality, linear regression %M on Log-dose, limits in brackets) was “EC50 (%, w/v) = 2.44 (1.24, 4.75)” and the “concentration given 50% of contact mortality” value (Tetranychus urticae [1]; in vivo) was 2.44%. For the same molecule, the “Oviposition inhibition (%IO)” value (Tetranychus urticae [4]; Dose 0.10 % (w/v)) was 44.3 ± 3.7* %, the “Settling inhibition (%SI)” value (Tetranychus urticae [4]; Dose 0.10 % (w/v)) was 57.7 ± 5.3% and the “Oviposition inhibition (%IO)” value (Tetranychus urticae [4]; Dose 0.50 % (w/v)) was 72.1 ± 3.1* %. The “Settling inhibition (%SI)” value (Tetranychus urticae [4]; Dose 0.50 % (w/v)) was 73.2 ± 2.6%, the “Oviposition inhibition (%IO)” value (Tetranychus urticae [4]; Dose 1.0 % (w/v)) was 81.1 ± 2.1* % and the “Settling inhibition (%SI)” value (Tetranychus urticae [4]; Dose 1.0 % (w/v)) was 76.1 ± 2.7%.
